Measurements reported in patent publication US20110245351A1, “MEDICAL ADHESIVE FOR SURGERY” (BAYER MATERIALSCIENCE AG, priority 2008, published 2011).

Test: Processing / curing time of the adhesive from prepolymer A-1 and secondary diamine
Format: physicochemical
Conditions: for Processing time: diamine as curing agent for prepolymer A-1
Experimental: 1 g of the prepolymer A-1 were stirred well in a beaker with an equivalent quantity of dimethyl 2,2′-(pentane-1,5-diylbis(azandiyl))bis(4-methylpentanoate). Directly after this, the reaction mixture was applied thinly onto the tissue to be glued. […] After 2 mins, the surface of the adhesive was no longer tacky.

[1] = 1 g prepolymer A-1 with equivalent quantity of diamine, applied thinly onto tissue

Row | Processing time | Curing to a transparent film [1] | Time after which surface of the adhesive was no longer tacky [1] | Compound
1 | 0.7 min |  |  | CCOC(=O)C(C)NCCCCNC(C)C(=O)OCC (stereo not drawn)
2 | 0.55 min |  |  | CCOC(=O)C(C)NCCCCCNC(C)C(=O)OCC (stereo not drawn)
3 | 4 min |  |  | COC(=O)C(Cc1ccccc1)NCCCNC(Cc1ccccc1)C(=O)OC (stereo not drawn)
4 | 4 min |  |  | COC(=O)C(Cc1ccccc1)NCCCCCCNC(Cc1ccccc1)C(=O)OC (stereo not drawn)
5 | 3 min |  |  | CCC(C)C(NCCCNC(C(=O)OC)C(C)CC)C(=O)OC (stereo not drawn)
6 | 4 min |  |  | COC(=O)C(NCCCNC(C(=O)OC)C(C)C)C(C)C (stereo not drawn)
7 |  | ≤ 1 min | 2 min | COC(=O)C(CC(C)C)NCCCCCNC(CC(C)C)C(=O)OC (stereo not drawn) [Example 2, Dimethyl 2,2′-(pentan-1,5-diylbis(azandiyl))bis(4-methylpentanoate)]
8 | 4 min |  |  | COC(=O)C(CC(C)C)NCCCCCNC(CC(C)C)C(=O)OC (stereo not drawn) [drawing 17]
